One assay has as its target T1, PDE6D (Homo sapiens, UniProt O43924+Q96SW2).
T1 construct: endogenous in cells; host or cells: MV-4-11
In words: Western blot, degradation of cellular PDE6D in MV-4-11 cells. Type of assay: cell-based. Conditions: MV4-11; tested at 1 μM, MV-4-11 cells, 6-8 hours; read-out: % Degradation compared to DMSO, PDE6D. The protocol: (§1) MV-4-11 cells were grown in RPMI 1640 media supplemented with 10% fetal bovine serum, streptomycin and penicillin.
(§2) Cells were cultured at approximately 10^6 cells per mL and incubated in DMSO or the indicated compounds for 6-8 hours. Whole cell extracts were prepared using RIPA lysis buffer according to manufacturer's protocol (Pierce). Briefly, 4×10^6 cells were washed once in PBS, the cell pellets were resuspended in RIPA lysis buffer and allowed to incubate for 15 minutes on ice. Cells debris was removed by centrifugation and the cleared whole cell lysates were transferred to new tubes for further analysis.
(§3) For Western blot analysis, whole cell protein extracts were separated on 4-12% SDS-polyacrylamide gels, transferred to nitrocellulose and probed with the indicated primary antibodies. Membranes were subsequently washed and probed with the appropriate IRDye secondary antibodies (LI-COR). The signal was detected using the Odyssey Imaging System (LI-COR).
(§4) The following antibodies were used in these studies: Anti-PDE6D antibody: Santa Cruz Biotechnology, sc-166854 (Dallas, Tex.); Anti-Ikaros: Abcam, ab191394 (Cambridge, Mass.); anti-CK1α antibody: Abcam, ab108296 (Cambridge, Mass.); β-Actin (8H10D10) mouse monoclonal antibody: Cell Signaling Technology, #3700 (Danvers, Mass.); IRDye 680RD Goat anti-rabbit antibody: LI-COR, 926-68071 (Lincoln, Nebr.); and IRDye 800CW Goat anti-mouse antibody: LI-COR, 926-32210 (Lincoln, Nebr.).
(§5) The % degradation values are reported as “A”, “B”, “C”, or “D.” “A” represents a % degradation value of less than 25% (value<25%); “B” represents a % degradation value of equal to or more than 25% and less than 50% (25%≤value<50%); “C” represents a % degradation value of equal to or more than 50% and less than 75% (50%≤value<75%); and “D” represents a % degradation value of equal to or more than 75% (value≥75%). […] was used as control.
For orientation: A western blot detects proteins with antibodies after separation by electrophoresis.

The test system of a further assay is IL-2. Briefly: IL-2 inhibition assay, anti-CD3 (OKT3) stimulated PBMCs, Mesoscale IL-2 analysis. Format: cell-based, human. Conditions: Homo sapiens, PBMC, PBMCs on anti-CD3, 24 h, fold difference from DMSO control, read-out: IL-2, % Induction compared to DMSO. On the procedure:
For the IL-2 analysis, 96 well plates were precoated with 1 μg/mL anti-human CD3 antibody (OKT3, eBioscience Inc., San Diego, Calif.). After washing with PBS, the indicated compound was added (50 μL/well) followed by PBMCs diluted at 3-4 million cells/mL (150 μL/well). Plates were incubated for 24 h and the supernatants collected for Mesoscale IL-2 analysis. IL-2 activity is measured as fold difference from the DMSO control. […]
In Table 4, the fold-change values are reported as “A”, “B”, “C”, or “D”. “A” represents a fold-change value of equal to or less than 0.5 (value≤0.5); “B” represents a fold-change value of more than 0.5 and equal to or less than 1 (0.5<value≤1); “C” represents a fold-change value of more than 1 and less than 1.5 (1<value<1.5); and “D” represents a fold-change value of equal to or more than 1.5 (value≥1.5).

For a further assay, the system named is IL-1β. Briefly: IL-1β inhibition, LPS-induced PBMCs or CD14+ monocytes, Meso Scale assay. Format: cell-based. To be noted: LPS 100 ng/mL 18-24 h, read-out: % Inhibition compared to DMSO, IL-1β; for inhibition at 1 µM: tested at 1 μM; for inhibition at 10 µM: tested at 10 μM. On the procedure:
(§6) Either frozen primary blood mononuclear cells (PBMCs) or frozen CD14+ mobilized peripheral blood monocytes were purchased from AllCells (PB003F, Normal Peripheral Blood MNC (Alameda, Calif.)). Cells were quick thawed, washed 1-time with RPMI-1640 (10% FBS/1% Pen-Strep) and plated in 96 well plates at 200,000 cells per well. Cells were pretreated with DMSO only or with the indicated compound for 1 h and then induced with 100 ng/mL lipopolysaccharide (LPS) for 18-24 h. The supernatant was analyzed for IL-1β, IL-6, and TNFα, using Meso Scale assay according to manufacturer's protocol. The negative control wells were treated with DMSO.
(§7) IL-1β, IL-6 and TNFα activities were tested at two different concentrations (1 μM and 10 μM) and the results are shown in Tables 2 and 3 respectively.

Another assay has as its system TNFα. In words: TNFα inhibition, LPS-induced PBMCs or CD14+ monocytes, Meso Scale assay. Format: cell-based. To be noted: LPS 100 ng/mL 18-24 h, read-out: % Inhibition compared to DMSO, TNFα; for inhibition at 1 µM: tested at 1 μM; for inhibition at 10 µM: tested at 10 μM. The protocol: as §6, §7
A further assay has as its target T2, CK1α (Homo sapiens, UniProt P48729+Q96SW2).
T2 construct: endogenous in cells; host or cells: MV-4-11
Briefly: Western blot, degradation of cellular CK1α in MV-4-11 cells. Type of assay: cell-based. To be noted: MV4-11, tested at 1 μM, 6-8 hours, read-out: % Degradation compared to DMSO, CK1α. On the procedure: as §1, §2, §3, §4, §5

A further assay addresses T3, Ikaros (Homo sapiens, UniProt Q13422+Q96SW2).
T3 construct: endogenous in cells; host or cells: MV-4-11
Briefly: Western blot, degradation of cellular Ikaros in MV-4-11 cells. Format: cell-based. To be noted: MV4-11, tested at 1 μM, 6-8 hours, read-out: % Degradation compared to DMSO, Ikaros. On the procedure:
as §1, §2, §3, §4, §5

The test system of the next assay is IL-6. In words: IL-6 inhibition, LPS-induced PBMCs or CD14+ monocytes, Meso Scale assay. Type of assay: cell-based. To be noted: LPS 100 ng/mL 18-24 h, read-out: % Inhibition compared to DMSO, IL-6; for inhibition at 1 µM: tested at 1 μM; for inhibition at 10 µM: tested at 10 μM. On the procedure:
as §6, §7

As usually defined, the inhibition is how much of the control response was suppressed.

T2 sequence (P48729 whole entry): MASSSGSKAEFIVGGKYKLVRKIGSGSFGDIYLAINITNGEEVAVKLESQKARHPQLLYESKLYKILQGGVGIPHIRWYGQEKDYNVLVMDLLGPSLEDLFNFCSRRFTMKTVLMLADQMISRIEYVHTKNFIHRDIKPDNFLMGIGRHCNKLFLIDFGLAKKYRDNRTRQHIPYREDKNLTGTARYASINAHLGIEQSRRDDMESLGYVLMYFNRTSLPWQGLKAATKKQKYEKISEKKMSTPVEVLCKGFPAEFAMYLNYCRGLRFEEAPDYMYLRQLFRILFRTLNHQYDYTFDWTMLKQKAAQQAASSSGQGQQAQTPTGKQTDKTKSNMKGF
T2 sequence (Q96SW2 whole entry): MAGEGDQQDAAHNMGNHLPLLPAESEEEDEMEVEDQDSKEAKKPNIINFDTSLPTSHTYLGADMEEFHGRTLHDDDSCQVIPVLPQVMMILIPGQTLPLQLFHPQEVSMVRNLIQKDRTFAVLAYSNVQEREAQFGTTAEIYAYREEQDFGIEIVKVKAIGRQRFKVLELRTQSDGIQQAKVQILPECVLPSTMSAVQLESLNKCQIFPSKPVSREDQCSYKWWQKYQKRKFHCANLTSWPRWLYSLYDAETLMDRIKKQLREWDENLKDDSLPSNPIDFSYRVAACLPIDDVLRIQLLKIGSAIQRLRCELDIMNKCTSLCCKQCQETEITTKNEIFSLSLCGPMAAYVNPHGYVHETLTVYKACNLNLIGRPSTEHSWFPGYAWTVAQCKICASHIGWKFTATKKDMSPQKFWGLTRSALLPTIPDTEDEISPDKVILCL
T2 sequence (Q16531 whole entry partner): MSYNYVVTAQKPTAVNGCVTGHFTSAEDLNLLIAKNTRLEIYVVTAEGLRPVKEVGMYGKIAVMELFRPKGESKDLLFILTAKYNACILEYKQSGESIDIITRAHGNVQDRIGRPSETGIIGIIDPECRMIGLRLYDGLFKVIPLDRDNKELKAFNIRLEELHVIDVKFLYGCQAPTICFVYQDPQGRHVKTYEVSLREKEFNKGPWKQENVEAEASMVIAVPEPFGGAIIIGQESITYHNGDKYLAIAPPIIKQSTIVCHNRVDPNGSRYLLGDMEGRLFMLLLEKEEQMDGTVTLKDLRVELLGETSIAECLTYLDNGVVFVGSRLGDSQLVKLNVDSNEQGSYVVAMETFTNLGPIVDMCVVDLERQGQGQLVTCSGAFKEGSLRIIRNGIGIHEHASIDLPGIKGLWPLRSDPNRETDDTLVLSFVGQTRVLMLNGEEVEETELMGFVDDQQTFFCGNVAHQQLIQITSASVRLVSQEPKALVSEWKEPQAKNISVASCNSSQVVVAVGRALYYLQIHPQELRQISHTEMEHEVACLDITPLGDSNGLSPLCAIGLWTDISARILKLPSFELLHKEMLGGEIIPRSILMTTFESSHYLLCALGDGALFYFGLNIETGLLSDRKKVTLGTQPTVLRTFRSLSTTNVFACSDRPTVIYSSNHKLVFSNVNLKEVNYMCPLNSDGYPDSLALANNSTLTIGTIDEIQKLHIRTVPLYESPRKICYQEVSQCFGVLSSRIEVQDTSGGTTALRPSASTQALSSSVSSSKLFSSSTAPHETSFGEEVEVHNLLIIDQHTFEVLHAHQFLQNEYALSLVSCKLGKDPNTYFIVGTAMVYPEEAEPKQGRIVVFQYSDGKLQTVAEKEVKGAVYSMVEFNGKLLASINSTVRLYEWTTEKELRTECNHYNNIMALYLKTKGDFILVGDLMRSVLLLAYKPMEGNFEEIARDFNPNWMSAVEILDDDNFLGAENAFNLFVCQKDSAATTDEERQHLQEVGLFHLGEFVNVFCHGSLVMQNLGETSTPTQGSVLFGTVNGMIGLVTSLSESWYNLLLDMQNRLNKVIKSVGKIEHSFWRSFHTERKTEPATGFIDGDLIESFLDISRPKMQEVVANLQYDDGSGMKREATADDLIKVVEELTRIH
T3 sequence (Q13422 whole entry): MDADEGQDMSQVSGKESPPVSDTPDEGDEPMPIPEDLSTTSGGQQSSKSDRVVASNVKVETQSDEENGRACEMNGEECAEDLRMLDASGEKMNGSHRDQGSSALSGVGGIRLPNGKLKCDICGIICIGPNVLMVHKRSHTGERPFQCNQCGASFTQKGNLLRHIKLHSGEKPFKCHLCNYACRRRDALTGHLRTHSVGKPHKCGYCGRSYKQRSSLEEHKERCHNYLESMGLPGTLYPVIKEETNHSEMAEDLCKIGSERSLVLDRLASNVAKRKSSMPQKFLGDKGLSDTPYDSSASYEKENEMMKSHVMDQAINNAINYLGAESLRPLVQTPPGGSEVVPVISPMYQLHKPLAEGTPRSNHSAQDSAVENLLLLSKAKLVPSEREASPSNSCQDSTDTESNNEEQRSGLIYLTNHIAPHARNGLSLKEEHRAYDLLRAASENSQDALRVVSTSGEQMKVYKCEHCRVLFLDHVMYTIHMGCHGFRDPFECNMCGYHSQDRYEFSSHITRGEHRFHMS
T3 sequence (Q96SW2 whole entry): as the sequence (Q96SW2 whole entry) above
T3 sequence (Q16531 whole entry partner): as the sequence (Q16531 whole entry partner) above
T1 sequence (O43924 whole entry): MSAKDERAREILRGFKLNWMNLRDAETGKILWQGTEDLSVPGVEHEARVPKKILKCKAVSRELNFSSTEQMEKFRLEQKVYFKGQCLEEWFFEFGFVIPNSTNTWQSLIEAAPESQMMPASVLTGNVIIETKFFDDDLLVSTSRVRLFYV
T1 sequence (Q96SW2 whole entry): as the sequence (Q96SW2 whole entry) above
T1 sequence (Q16531 whole entry partner): as the sequence (Q16531 whole entry partner) above

Consider `O=C1CCC(N2Cc3c(ccc(F)c3C3CCCC3)C2=O)C(=O)N1` (centres unmarked) [Compound 24], for which the values for the Dmax at 1 µM at PDE6D, at CK1α and at Ikaros were 25 to 50%, below 25% and below 25%, respectively. Further, in the assay on IL-2, the fold induction at 1 µM is 1 to 1.5. Further, the fold induction at 10 µM with IL-2 was in the range of 1 to 1.5. The inhibition at 1 µM in the assay on IL-1β was below 10%; in the assay with TNFα, 10 to 25%; with IL-6, below 10%. Besides, the inhibition at 10 µM in the assay with IL-1β, in the assay with TNFα and in the assay with IL-6 was below 10% throughout.

Regarding `O=C1CCC(N2C(=O)c3cc(F)cc(C4CCCC4)c3C2=O)C(=O)N1` (centres unmarked) [Compound 12], the Dmax at 1 µM is at least 75% at PDE6D, below 25% on CK1α and below 25% at Ikaros. Besides, the fold induction at 1 µM in the assay with IL-2 was 0.5 to 1. Also, the fold induction at 10 µM in the assay on IL-2 fell in the range of 0.5 to 1. The inhibition at 1 µM in the assay with IL-1β was below 10%; with TNFα it was 10 to 25%; in the assay on IL-6, below 10%. Besides, the inhibition at 10 µM in the assay on IL-1β was below 10%; with TNFα, 25 to 50%; in the assay on IL-6, below 10%.

As for `COc1cc2c(c(C3CCCC3)c1)CN(C1CCC(=O)NC1=O)C2=O` (centres unmarked) [Compound 14], the Dmax at 1 µM at PDE6D was in the range of 25 to 50%; at CK1α it was 25 to 50%; at Ikaros, 50 to 75%. In the assay on IL-2, the fold induction at 1 µM lay in the range of 0.5 to 1. The fold induction at 10 µM in the assay on IL-2 is 0.5 to 1. Besides, the inhibition at 1 µM in the assay with IL-1β was below 10%; in the assay with TNFα, 10 to 25%; in the assay with IL-6 it was below 10%. The inhibition at 10 µM is 10 to 25% in the assay with IL-1β, 25 to 50% in the assay on TNFα and below 10% in the assay with IL-6.

As to `O=C1CC(N2Cc3c(cc(F)cc3C3CCCC3)C2=O)C(=O)N1` (centres unmarked) [Compound 19, 3-(4-Cyclopentyl-6-fluoro-1-oxoisoindolin-2-yl)pyrrolidine-2,5-dione], the Dmax at 1 µM was at least 75% at PDE6D, below 25% at CK1α and below 25% on Ikaros. Moreover, the fold induction at 1 µM with IL-2 lay in the range of 0.5 to 1. The fold induction at 10 µM in the assay with IL-2 lay in the range of 0.5 to 1. Moreover, the inhibition at 1 µM in the assay with IL-1β, in the assay on TNFα and in the assay with IL-6 was below 10% in each case. The inhibition at 10 µM with IL-1β, in the assay with TNFα and in the assay on IL-6 was below 10% each time.

For `C[C@H](c1cc(F)cc2c1CN(C1CCC(=O)NC1=O)C2=O)C(F)(F)F` (some centres unmarked) [Compound 23], the Dmax at 1 µM is 25 to 50% on PDE6D, 50 to 75% on CK1α and below 25% at Ikaros. For the same molecule, in the assay with IL-2, the fold induction at 1 µM was in the range of 0.5 to 1. The fold induction at 10 µM in the assay with IL-2 lay within 0.5 to 1. The inhibition at 1 µM in the assay on IL-1β, in the assay on TNFα and in the assay on IL-6 was below 10% each time. In addition, the inhibition at 10 µM in the assay on IL-1β was below 10%; with TNFα it was 25 to 50%; in the assay with IL-6, below 10%.

As for `CC1(N2Cc3c(cc(F)cc3C3CCCC3)C2=O)CCC(=O)NC1=O` (centres unmarked) [Compound 4, 3-(4-cyclopentyl-6-fluoro-1-oxoisoindolin-2-yl)-3-methylpiperidine-2,6-dione], the Dmax at 1 µM at PDE6D, on CK1α and on Ikaros was below 25% throughout. For the same molecule, the fold induction at 1 µM with IL-2 is 0.5 to 1. For the same molecule, the fold induction at 10 µM with IL-2 fell in the range of 0.5 to 1. Besides, the inhibition at 1 µM in the assay on IL-1β is below 10%; with TNFα, 25 to 50%; with IL-6, below 10%. In addition, the inhibition at 10 µM in the assay on IL-1β is 10 to 25%; in the assay on TNFα, above 50%; in the assay with IL-6, below 10%.

As to `O=C1CCC(N2Cc3c(cc(F)cc3C3CC3)C2=O)C(=O)N1` (centres unmarked) [Compound 5], the Dmax at 1 µM at PDE6D is at least 75%; on CK1α, at least 75%; on Ikaros, 25 to 50%. In addition, the fold induction at 1 µM in the assay on IL-2 is at most 0.5. For the same molecule, the fold induction at 10 µM in the assay on IL-2 is at most 0.5. Further, the figures for the inhibition at 1 µM in the assay on IL-1β, in the assay with TNFα and in the assay with IL-6 were 25 to 50%, 25 to 50% and below 10%, respectively. Further, the figures for the inhibition at 10 µM in the assay on IL-1β, in the assay with TNFα and with IL-6 were above 50%, above 50% and below 10%, respectively.

Take `Cc1c(F)cc2c(c1C1CCCC1)CN(C1CCC(=O)NC1=O)C2=O` (centres unmarked) [Compound 21, 3-(4-Cyclopentyl-6-fluoro-5-methyl-1-oxoisoindolin-2-yl) piperidine-2,6-dione]: the Dmax at 1 µM on PDE6D is at least 75%; at CK1α it was 25 to 50%; on Ikaros it was 25 to 50%. Further, the fold induction at 1 µM in the assay with IL-2 was at most 0.5. For the same molecule, in the assay with IL-2, the fold induction at 10 µM is at most 0.5. Further, the inhibition at 1 µM in the assay with IL-1β, in the assay with TNFα and with IL-6 was below 10% throughout. In addition, the inhibition at 10 µM was below 10% in the assay on IL-1β, 25 to 50% in the assay on TNFα and below 10% with IL-6.

As to `O=C1CCC(N2C(=O)c3cccc(C4CCCC4)c3C2=O)C(=O)N1` (centres unmarked) [Compound 10, 4-cyclopentyl-2-(2,6-dioxopiperidin-3-yl)isoindoline-1,3-dione], the Dmax at 1 µM was 50 to 75% at PDE6D, below 25% at CK1α and 25 to 50% at Ikaros. The fold induction at 1 µM in the assay with IL-2 is 1 to 1.5. For the same molecule, the fold induction at 10 µM in the assay on IL-2 lay within 0.5 to 1. In addition, the inhibition at 1 µM with IL-1β is below 10%; in the assay on TNFα, 10 to 25%; in the assay on IL-6 it was below 10%. The inhibition at 10 µM in the assay on IL-1β was 10 to 25%; in the assay with TNFα, above 50%; in the assay on IL-6, 10 to 25%.

For the molecule `O=C1CCC(N2Cc3c(cc(F)cc3C3CC4CCC3C4)C2=O)C(=O)N1` (centres unmarked) [Compound 25], the Dmax at 1 µM on PDE6D is 50 to 75%; at CK1α, 25 to 50%; at Ikaros, 25 to 50%. The fold induction at 1 µM in the assay on IL-2 fell in the range of 1 to 1.5. Further, in the assay with IL-2, the fold induction at 10 µM fell in the range of 0.5 to 1. The inhibition at 1 µM is below 10% in the assay on IL-1β, 10 to 25% in the assay with TNFα and below 10% in the assay with IL-6. For the same molecule, the inhibition at 10 µM is 25 to 50% in the assay on IL-1β, 10 to 25% with TNFα and below 10% in the assay with IL-6.

The record behind these values is US11352338B2, “Substituted isoindolinones” (BioTheryX, Inc., priority 2018, dated 2022).
